Data published in US9566290B2, “Boron-containing small molecules” (Anacor Pharmaceuticals, Inc., priority 2005, dated 2017).

Assays:
[1] = Nail penetration, 14-day dosing of radiolabeled compound (Hui protocol); type: in vitro ADME
Protocol: Two nail penetration studies were performed based on the protocol in Hui et al., Journal of Pharmaceutical Sciences, 91(1): 189-195 (2002) (“Hui protocol”). The purpose of this study was to determine and compare the penetration and distribution of C10 in vehicle into the human nail plate in vitro relative to 8% ciclopirox w/w in commercial lacquer (Penlac®).
The study was composed of two groups. The compositions (weight %) of the dosage formulations are as follows: […]
Healthy human finger nail plates were collected from adult human cadavers and stored in a closed container at 0-4° C. Before the experiment, the nail plates were gently washed with normal saline to remove any contamination, then re-hydrated by placing them for three hours on a cloth wetted with normal saline. The nail samples were randomly selected into four groups.
Radioactivity of each group is approximately 0.19±0.01 and 0.22±0.03 μCi/10 μL solutions respectively, for ^14C—C10 (group A), and ^14C-ciclopirox (group C).
Surface washing was started in morning 10 min prior to next dosing, the surface of the nail was washed with cotton tips in a cycle, as follows:
A Teflon one-chamber diffusion cell (PermeGear, Inc., Hellertown, Pa.) was used to hold each nail. To approximate physiological conditions, a small cotton ball wetted with 0.1 mL normal saline was placed in the chamber to serve as a nail bed and provide moisture for the nail plate. Every 3 days, 0.1 mL normal saline was injected through the inlet into the chamber to keep the cotton ball wet. The nail plate was placed on a ledge inside the receptor (1.0 cm in diameter and 0.5 cm high). The ventral (inner) surface of the nail was placed face down and rested on the wet cotton ball. The cells were placed on a platform in a large glass holding tank filled with saturated sodium phosphate solution to keep the cells at a constant humidity of 40%.
After completion of the incubation phase, the nail plate was transferred from the diffusion cell to a clean copper nail holder for sampling process. The nail plate was inverted so that the ventral (nail bed) surface now faced up and the dorsal (outer) dosed surfaced faced down. The copper nail holder has an opening as it sits on top of the stage. When the sampling process initiated, the coarse adjustment was adjusted to move the position of the stage until the nail plate was just touching the tip of the cutter. Then the drill was turned on and the fine adjustment was turned to push the stage closer to the drill, removing a nail core sample. After the above process, approximate 0.40-0.50 mm in depth and 7.9 mm in diameter nail pulverized samples were harvested from the center of the ventral (nail bed) surface of the nail.
The powdered nail samples were collected into a glass scintillation vial and weighted. Aliquots of 5.0 mL Packard soluene-350 (Packard Instrument Company, Meriden, Conn.) was added to the scintillation vial to dissolve the powder. The upper part, the intermediate and dorsal layers of the center of the nail, including the area of application of the dose was cut in the same diameter as the sampled area and was then placed into a glass scintillation vial with 5.0 mL packard soluene-350. The rest of the nail was also placed in a glass scintillation vial with 5.0 mL packard soluene-350.
All radioactivity measurements were conducted with a Model 1500 Liquid Scintillation Counter (Packard Instrument Company, Downer Grove, Ill.). The counter was audited for accuracy using sealed samples of quenched and unquenched standards as detailed by the instrument manual. The ^14C counting efficiency is equal to or greater than 95%. All nail samples pre-treated with packard soluene-350 were incubated at 40° C. for 48 hours followed by the addition of 10 mL scintillation cocktail (HIONIC-FLUOR, Packard Instrument Company, Meriden, Conn.). […]

[2] = Solubility in pre-saturated n-octanol or water, visual inspection; type: physicochemical
Protocol: N-Octanol and water were mutually pre-saturated by vigorously stirring a mixture of both solvents for up to 12 h and the mixture was allowed to separate. Solubility in each solvent was determined by adding 10 μL of 20, 40, 200, 1000 and 5000 μg/mL of C10 in DMSO to the pre-saturated n-octanol or water. After the sample was vortexed for 10 sec, the sample was centrifuged for 10 min at ca. 3000 rpm. A visual inspection was made to determine if the sample was clear or if a pellet had formed on the bottom of the tube.

[3] = tested on: S. cerevisiae diploid (mutant strain/ATCC200901); experiment: MIC of diploids from yeast mating experiment; type: cell-based, Saccharomyces cerevisiae
Protocol: The minimal inhibitory concentration (MIC) was essentially performed following the NCCLS guidelines outlined in the M27 protocol with the exception of using YPD or synthetic defined media (SDM).
The haploid mutants derived from S. cerevisiae ATCC201388 were mixed with S. cerevisiae ATCC 200901, and were incubated on YPD agar plates at 30° C. for 4 h. The cell mixture was streaked out on synthetic defined media agar (BD, NJ USA) without the amino acids lysine and methionine, which are selective for diploids.

SMILES: OB1OCc2cc(F)ccc21 [C10, 5-fluorobenzo[c][1,2]oxaborol-1(3H)-ol]
- absolute amount of drug equivalent per cotton ball sample versus ciclopirox [1]: significantly higher
- amount of equivalent in ventral/intermediate center of the nail layer and cotton ball supporting bed versus group C (ciclopirox) [1]: statistically higher
- weight normalized concentration of drug equivalent in nail samples versus ciclopirox equivalent ([1]; dorsal/intermediate center, ventral/intermediate center and remainder nail, 14-day treatment, p≦0.002): significantly higher
- Cumulative radioactivity recoveries of carbon-14 ([1]; human, 14 day): 88±9.21% of applied dose
- difference of the two test chemicals in cotton ball supporting bed (C10 versus ciclopirox) ([1]; human, 14 day): 250 times
- solubility in octanol and water, in words ([2]; over the concentration range tested): very good
- Solubility, Octanol Visual ([2]; targeted conc 0.800 μg/mL): Clear
- Solubility, Water Visual ([2]; targeted conc 0.800 μg/mL): Clear
- Solubility, Octanol Visual ([2]; targeted conc 4.00 μg/mL): Clear
- Solubility, Water Visual ([2]; targeted conc 4.00 μg/mL): Clear
- Solubility, Octanol Visual ([2]; targeted conc 20.0 μg/mL): Clear
- Solubility, Water Visual ([2]; targeted conc 20.0 μg/mL): Clear
- Solubility, Octanol Visual ([2]; targeted conc 100 μg/mL): Clear
- Solubility, Water Visual ([2]; targeted conc 100 μg/mL): Clear
- MIC ([3]; Saccharomyces cerevisiae, ATCC200901): 32 µg/mL
- MIC ([3]; Saccharomyces cerevisiae, ATCC 200901 / ATCC 201388): 0.5 µg/mL
- MIC ([3]; diploid (G)/ATCC200901): 32 µg/mL
- MIC ([3]; diploid (H)/ATCC200901): 32 µg/mL
- MIC of diploids from C10 mutants versus diploid from parental strain ([3]; three mutants mated with ATCC 200901): 64 fold
